Reference: patent publication US5556858A, “Cis-2-[(4-heteroaryl-1-piperazinyl)alkyl] hexahydro-1H-isoindole-1,3 (2H)-diones and related compounds and their therapeutic utility” (Hoechst-Roussel Pharmaceuticals, Inc., priority 1995, dated 1996)
Counter-ions that a name gives are not always drawn.

test system: apomorphine climbing; test: climbing mice assay (antipsychotic activity); assay type: in vivo, mice (CK-1 male); settings: Mus musculus; ip; apomorphine 1.5 mg/kg subcutaneously; climbing score vs control
Procedure: Subject […] male mice (23-27 grams) are group-housed under standard laboratory conditions. The mice are individually placed in wire mesh stick cages (4"×10") and are allowed one hour for adaption and exploration of the new environment.
For evaluation of climbing, 3 readings are taken at 10, 20, and 30 minutes-after apomorphine administration according to the following scale: […]
Mice consistently climbing before the injection of apomorphine are discarded.
With full-developed apomorphine climbing, the animals are hanging on to the cage walls, rather motionless, over long periods of time. By contrast, climbs due to mere motor stimulation usually only last a few seconds.
The climbing scores are individually totaled (maximal score: 6 per mouse over 3 readings) and the total score of the control group (vehicle intraperitoneally-apomorphine subcutaneously) is set to 100%.

Structure (SMILES) | ED50
CC1c2ccccc2C(=O)N1CCN1CCC(c2noc3cc(F)ccc23)CC1 (stereo not drawn) [2-[2-[4-(6-Fluoro-1,2-benzisoxazol-3-yl)-1-piperidinylethyl]-2,3-dihydro-3-methyl-1H-isoindol-1-one hydrochloride] | 1.17 mg/kg
O=C1c2ccccc2C(=O)N1CCN1CCN(c2n[nH]c3cc(F)ccc23)CC1 [N-[2-[4-(6-Fluoro-1H-indazol-3.-yl)-1-piperazinyl]ethyl]phthalimide] | 1.2 mg/kg
OCCCN1CCC(c2noc3cc(F)ccc23)CC1 [6-Fluoro-3-[1-(3-hydroxypropyl)-4-piperidinyl]-1,2-benzisoxazole] | 4.1 mg/kg
Fc1ccc2c(c1)CN(CCN1CCC(c3n[nH]c4cc(F)ccc34)CC1)C2.O=C(O)/C=C\C(=O)O.O=C(O)/C=C\C(=O)O [4-(6-Fluoro-1H-indazol-3-yl)-1-[2-(5-fluoro-2,3-dihydro-1H-isoindol-2-yl)ethyl]piperidine dimaleate] | 0.27 mg/kg
Fc1ccc2c(C3CCN(CCCOc4cccc5cnccc45)CC3)noc2c1 [6-Fluoro-3-[1-[3-[(isoquinol-5-yl)oxylpropyl]-4-piperidinyl]-1,2-benzisoxazole sesquifumarate] | 0.172 mg/kg
Fc1ccc2c(C3CCN(CCC4COc5ccccc5O4)CC3)noc2c1 (stereo not drawn) [2-[4-(6-fluoro-1,2-benzisoxazol-3-yl)-1-piperidinyl]-ethyl]-1,4-benzodioxan] | 0.29 mg/kg
O=C1c2ccccc2CN1CCN1CCC(c2noc3cc(F)ccc23)CC1 [2,3-dihydro-2-[2-[4-(6-Fluoro-1,2-benzisoxazol-3-yl)-1-piperidinyl]ethyl]-1H-isoindol-1-one] | 1.9 mg/kg
Fc1ccc2c(C3CCN(CCN4CCCc5ccccc54)CC3)noc2c1.O=C(O)/C=C/C(=O)O [N-[2-[4-(6-Fluoro-1,2-benzisoxazol-3-yl)-1-piperidinyl]ethyl]-1,2,3,4-tetrahydroquinoline fumarate] | 1.19 mg/kg
Fc1ccc2c(c1)CN(CCN1CCN(c3n[nH]c4cc(F)ccc34)CC1)C2.O=C(O)/C=C\C(=O)O.O=C(O)/C=C\C(=O)O [4-(6-Fluoro-1H-indazol-3-yl)-1-[2-(5-fluoro-2,3-dihydro-1H-isoindol-2-yl)-ethyl]piperazine dimaleate] | 0.16 mg/kg
Cc1nc2ccccc2c(=O)n1CCN1CCC(c2noc3cc(F)ccc23)CC1 [3-[2-[4-(6-Fluoro-1,2-benzisoxazol-3-yl)-1-piperidinyl]ethyl]-2-methyl-3H-quinazolin-4-one] | 0.61 mg/kg
O=C(CN1CCC(c2noc3cc(F)ccc23)CC1)N1Cc2ccccc2C1.O=C(O)/C=C/C(=O)O [2-[4-(6-Fluoro-1,2-benzisoxazol-3-yl)-1-piperidinyl]-1-(2,3-dihydro-1H-isoindol-2-yl)ethanone fumarate] | 2.33 mg/kg
Cl.Cl.Fc1ccc2c(C3CCN(CCN4Cc5ccccc5C4)CC3)noc2c1 [4-(6-Fluoro-1,2-benzisoxazol-3-yl)-1-[2-(2,3-dihydro-1H-isoindol-2-yl)ethyl]-piperidine dihydrochloride] | 0.36 mg/kg
COc1cc(C(C)=O)ccc1OCCCCN1CCC(c2noc3ccccc23)CC1 [1-[4-[4-[4-(1,2-Benzisoxazol-3-yl)-1-piperidinyl]butoxy]-3-methoxyphenyl]ethanone] | 1.6 mg/kg
COc1cc(C(C)=O)ccc1OC/C=C\CN1CCC(c2noc3cc(F)ccc23)CC1 [(Z)-1-[4-[[4-[4-(6-fluoro-1,2-benzisoxazol-3-yl)-1-piperidinyl]-2-butenyl]oxy]-3-methoxy-phenyl]ethanone] | 0.61 mg/kg
COc1cc(C(C)=O)ccc1OCCCN1CCC(c2nsc3cc(F)ccc23)CC1.Cl [1-[4-[3-[4-(6-Fluoro-1,2-benzisothiazol-3-yl)-1-piperidinyl]propoxy]-3-methoxy-phenyl]ethanone hydrochloride] | 0.16 mg/kg
Fc1ccc2c(C3CCN(CCN4CCc5ccccc5C4)CC3)noc2c1 [N-12-[4-(6-Fluoro-1,2-benzisoxazol-3-yl)-1-piperidinyl]ethyl-1,2,3,4-tetrahydroisoquinoline difumarate] | 0.23 mg/kg
Cl.O=C1c2ccccc2C(=O)N1CCN1CCC(c2nsc3cc(F)ccc23)CC1 [N-[2-[4-(6-Fluoro-1,2-benzisothiazol-3-yl)-1-piperidinyl]ethyl]phthalimide hydrochloride] | 0.38 mg/kg
Cl.Cl.NCCCN1CCC(c2noc3cc(F)ccc23)CC1 [1-(3-Aminopropyl)-4-(6-fluoro-1,2-benzisoxazol-3-yl)piperidine dihydrochloride] | 22.6 mg/kg
CCCCCCCCCC(=O)OCCCCN1CCC(c2noc3cc(F)ccc23)CC1.O=C(O)/C=C/C(=O)O [4-[4-(6-Fluoro-1,2-benzisoxazol-3-yl)-1-piperidinyl]butyl decanoate fumarate] | 3.31 mg/kg

Structure (SMILES) | ED50
Cl.O=C1c2ccccc2C(=O)N1CCN1CCC(c2noc3cc(F)ccc23)CC1 [N-[2-[4-(6-Fluoro-1,2-benzisoxazol-3-yl)-1-piperidinyl]ethyl]phthalimide h ydrochloride] | 0.48 mg/kg
Fc1ccc2c(c1)CN(CCN1CCN(c3n[nH]c4ccccc34)CC1)C2.O=C(O)/C=C\C(=O)O.O=C(O)/C=C\C(=O)O [4-(1H-indazol-3-yl)-1-[2-(2,3-dihydro-5-fluoro-1H-isoindol-2-yl)ethyl]piperazine dimaleate] | 1.32 mg/kg
Cl.O=C1c2ccccc2C(=O)N1CCN1CCC(c2n[nH]c3cc(F)ccc23)CC1 [N-[2-[4-(6-Fluoro-1H-indazol-3-yl)-1-piperidinyl]ethyl]phthalimide hydrochloride] | 0.8 mg/kg
O=C1c2ccccc2C(O)N1CCN1CCN(c2n[nH]c3cc(F)ccc23)CC1 (stereo not drawn) [2-[2-[4-(6-Fluoro-1H-indazol-3-yl)-1-piperazinyl]ethyl-2,3-dihydro-3-hydroxy-1H-isoindol-1-one hemifumarate] | 2.2 mg/kg
COc1cccc2c1C(=O)N(CCN1CCC(c3noc4cc(F)ccc34)CC1)C2=O [N-[2-[4-(6-fluoro-1,2-benzisoxazol-3-yl)-1-piperidinyl]ethyl]-3-methoxyphthalimide] | 0.16 mg/kg
Fc1ccc2c(C3CCN(CCN4CCc5ccccc5C4)CC3)n[nH]c2c1.O=C(O)/C=C\C(=O)O.O=C(O)/C=C\C(=O)O [N-[2-[4-(6-Fluoro-1H-indazol-3-yl)-1-piperidinyl]ethyl]-1,2,3,4-tetrahydroisoquinoline dimaleate] | 0.44 mg/kg
COc1cc(C(C)=O)ccc1OCCCCN1CCC(c2noc3cc(F)ccc23)CC1 [1-[4-[4-[4-(6-Fluoro-1,2-benzisoxazol-3-yl)-1-piperidinyl]butoxy]-3-methoxyphenyl]ethanone] | 0.68 mg/kg
O=C1c2c(F)ccc(F)c2C(=O)N1CCN1CCC(c2noc3cc(F)ccc23)CC1 [N-[2-[4-(6-Fluoro-1,2-benzisoxazol-3-yl)-1-piperidinyl]ethyl]-3,6-difluorophthalimide] | 2.9 mg/kg
O=C1c2ccccc2C(=O)N1CCN1CCC(c2noc3cc(F)ccc23)CC1 [N-[2-[4-(6-Fluoro-1,2-benzisoxazol-3-yl)-1-piperidinyl]ethyl]phthalimide] | 5 mg/kg
C=C1c2ccccc2C(=O)N1CCN1CCC(c2noc3cc(F)ccc23)CC1.Cl [2,3-Dihydro-2-[2-[4-(6-fluoro-1,2-benzisoxazol-3-yl)-1-piperidinyl]ethyl]-3-methylene-1H-isoindol-1-one hydrochloride] | 0.64 mg/kg
Fc1ccc2c(N3CCN(CCN4Cc5ccccc5C4)CC3)n[nH]c2c1.O=C(O)/C=C\C(=O)O.O=C(O)/C=C\C(=O)O [4-(6-Fluoro-1H-indazol-3-yl)-1-[2-(2,3-dihydro-1H-isoindol-2-yl)-ethyl]piperazine dimaleate] | 0.25 mg/kg
Fc1ccc2c(N3CCN(CCCN4Cc5ccccc5C4)CC3)n[nH]c2c1 [4-(6-Fluoro-1H-indazol-3-yl)-1-[3-(2.3-dihydro-1H-isoindol-2-yl)propyl]-piperazine dimaleate] | 0.46 mg/kg
Nc1ccc2c(c1)C(=O)N(CCN1CCC(c3noc4cc(F)ccc34)CC1)C2=O.O=C(O)/C=C/C(=O)O [N-[2-[4-(6-Fluoro-1,2-benzisoxazol-3-yl)-1-piperidinyl]ethyl]-4-aminophthalimide fumarate] | 0.097 mg/kg
Cc1cccc2c1CN(CCN1CCN(c3n[nH]c4cc(F)ccc34)CC1)C2 [4-(6-Fluoro-1H-indazol-3,yl)-1-[2-(2.3-dihydro-4-methyl-1H-isoindol-2-yl)ethyl]piperazine difumarate] | 0.35 mg/kg
Cl.O=C1c2ccc(O)cc2C(=O)N1CCN1CCC(c2noc3cc(F)ccc23)CC1 [N-[2-[4-(6-Fluoro-1,2-benzisoxazol-3-yl)-1-piperidinyl]ethyl]-4-hydroxyphthalimide hydrochloride] | 1.6 mg/kg
CC(=O)c1ccc(CCCCN2CCC(c3noc4cc(F)ccc34)CC2)cc1 [1-[4-(4'-Acetophenyl)butyl]-4-(6-fluoro-1,2-benzisoxazol-3-yl)piperidine] | 0.34 mg/kg
Cc1ccc2c(c1)C(=O)N(CCN1CCN(c3n[nH]c4cc(F)ccc34)CC1)C2=O [N-[2-[4-(6-Fluoro-1H-indazol-3-yl)-1-piperazinyl]ethyl]-4-methylphthalimidedihydrochloride] | 0.37 mg/kg
Cc1ccc2c(c1)CN(CCN1CCN(c3n[nH]c4cc(F)ccc34)CC1)C2 [4-(Fluoro-1H-indazol-3-yl)-1-[2-(2,3-dihydro-5-methyl-1H-isoindol-2-yl)-ethyl]piperazine difumarate] | 0.17 mg/kg
O=C(CN1CCC(c2noc3cc(F)ccc23)CC1)N1CCc2ccccc2C1 [1-(1,2,3,4-Tetrahydro-1H-isoquinolin-2-yl)-2-[4-(6-fluoro-1,2-benzosoxazol-3-yl)-1-piperidinyl]-ethanone hydrochloride ethanolate] | 6.25 mg/kg

same assay, conditions: ip; apomorphine 1.5 mg/kg subcutaneously; climbing score vs control

Structure (SMILES) | CLIMBING MOUSE ASSAY ED50
CC(CCN1C(=O)c2ccccc2C1=O)N1CCC(c2noc3cc(F)ccc23)CC1.Cl (stereo not drawn) [N,[3-[4-(6-Fluoro-1,2-benzisoxazol-3-yl)-1-piperidinyl]butyl]phthalimide hydrochloride] | 0.7 mg/kg
